Literature values, collected in US20260284040A1, “COMBINATION OF A PARP1 INHIBITOR AND A SELECTIVE ESTROGEN DEGRADER FOR TREATING CANCER” (ASTRAZENECA AB, priority 2023, published 2026).

Legend:
[1] = tested on: human bone marrow progenitor cells; details: in vitro
[2] = tested on: ER+ cell lines and PDX models; details: wide range of ER+ cell lines and PDX models, including ESR1m models
[3] = in vivo

Row | Effects on human bone marrow progenitor cells [1] | Structure (SMILES) | Antitumour activities [2] | Oral bioavailability [3]
1 | reduced effects | CCc1cc2ncc(CN3CCN(c4ccc(C(=O)NC)nc4)CC3)cc2[nH]c1=O [AZD5305, 5-{4-[(7-ethyl-6-oxo-5,6-dihydro-1,5-naphthyridin-3-yl)methyl]piperazin-1-yl}-N-methylpyridine-2-carboxamide] | – | –
2 | – | C[C@@H]1Cc2c(ccc3[nH]ncc23)[C@@H](c2ccc(NC3CN(CCCF)C3)cn2)N1CC(F)(F)F [Camizestrant, N-[1-(3-fluoropropyl)azetidin-3-yl]-6-[(6S,8R)-8-methyl-7-(2,2,2-trifluoroethyl)-6,7,8,9-tetrahydro-3H-pyrazolo[4,3-]isoquinolin-6-yl]-pyridin-3-amine] | demonstrated antitumour activities | orally bioavailable
3 | – | C[C@]12CC[C@@H]3c4ccc(O)cc4C[C@@H](CCCCCCCCC[S+]([O-])CCCC(F)(F)C(F)(F)F)[C@H]3[C@@H]1CC[C@@H]2O (stereo partly shown) [fulvestrant] | – | not orally bioavailable
